# Data: US20050101595A1, “N-containing cycloalkyl-substituted amino-thiazole derivatives and pharmaceutical compositions for inhibiting cell proliferation and methods for their use” (PFIZER INC., priority 2003, published 2005)
# Structures can show the parent of a compound that is named as a salt. Where two headings read alike, the source gives them in different places.
# Assays:
# [1] = tested on: HCT-116 cell line; test: Inhibition of cell growth, tetrazolium salt (MTT) assay; type: cell-based; conditions: for IC50: Homo sapiens, HCT-116, 120 h, MTT, three to five days, read-out: HCT-116 IC50; for HCT-116 % Inhibition at 0.25 μM: 0.25 μM compound
# In short: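 MTT colorimetric viability: three-to-five-day compound exposure in 0.5% (v/v) DMSO at 37° C, MTT 0.2 mg/mL for the last 4 h, A540 compared with vehicle-treated cells.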
# [2] = target: human CDK4 and genetically truncated (1-264) cyclin D3 (Homo sapiens, UniProt P11802); test: Inhibition of CDK4/Cyclin D Retinoblastoma Kinase Activity; type: biochemical; conditions: for Ki: apparent Ki, CDK4/truncated cyclin D3, Rb fragment substrate, 25 μM ATP
# In short: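 Read-out: 32P/33P incorporation into Rb fragment (386-928) captured on nitrocellulose, phosphorimager. Enzyme 5 nM CDK4/cyclin D3(1-264) from insect cells; ATP 25 μM, pH 7.4, 30 °C, 20 min (60 min for tight binders). Ki from competitive fits.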
# [3] = target: CDK2/Cyclin A (Homo sapiens, UniProt P24941); test: Inhibition of CDK2/Cyclin A Retinoblastoma Kinase Activity; type: biochemical; conditions: for Ki: apparent Ki, CDK2/proteolyzed cyclin A, Rb fragment substrate, 25 μM ATP; for CDK2 % Inhibition At 0.03 μM: Table 2
# In short: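 Human CDK2, baculovirus/insect-cell expressed, complexed with proteolyzed cyclin A (10 nM or 19 nM CDK2) phosphorylates an Rb fragment with 25 μM [32P/33P]ATP at pH 7.4, 30° C, for 60 or 75 minutes under initial-rate conditions. Filter-captured radioactivity is read by phosphorimager; apparent Ki from competitive-inhibition fits.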
# Sequence of human CDK4 and genetically truncated (1-264) cyclin D3 (P11802 whole entry, the tested form may be a part): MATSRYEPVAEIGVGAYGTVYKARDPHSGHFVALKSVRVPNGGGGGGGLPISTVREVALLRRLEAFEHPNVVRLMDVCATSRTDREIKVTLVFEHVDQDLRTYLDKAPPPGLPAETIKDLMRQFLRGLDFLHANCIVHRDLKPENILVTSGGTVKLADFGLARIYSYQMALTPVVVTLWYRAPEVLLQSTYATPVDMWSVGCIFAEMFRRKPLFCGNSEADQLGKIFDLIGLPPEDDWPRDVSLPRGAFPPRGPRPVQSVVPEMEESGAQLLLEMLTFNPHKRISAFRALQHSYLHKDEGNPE
# Sequence of human CDK4 and genetically truncated (1-264) cyclin D3 (P30281 1-264 partner): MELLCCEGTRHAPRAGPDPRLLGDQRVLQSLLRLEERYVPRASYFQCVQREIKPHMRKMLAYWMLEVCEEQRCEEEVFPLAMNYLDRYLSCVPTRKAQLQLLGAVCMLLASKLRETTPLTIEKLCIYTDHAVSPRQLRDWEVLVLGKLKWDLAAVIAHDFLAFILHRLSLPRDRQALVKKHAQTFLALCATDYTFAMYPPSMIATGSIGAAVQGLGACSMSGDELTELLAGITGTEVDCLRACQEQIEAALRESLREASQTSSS
Structure (SMILES),IC50 ([1]; first HCT-116 column (c4)) [nM],IC50 ([1]; second HCT-116 column (c5)) [nM],Ki [2] [nM],Ki [3] [nM],"HCT-116 % Inhibition at 0.1 μM ([1]; HCT-116 cells, at 0.1 μM) [%]",HCT-116 5 Inhibition at 0.25 μM ([1]; HCT-116 cells),CDK4 % Inhibition at 0.03 μM ([2]; at 0.03 μM) [%],CDK2 % Inhibition at 0.03 μM ([3]; at 0.03 μM) [%],further results
"Nc1nc(NC2CCN(S(=O)(=O)c3ccc(OCCn4ccnc4)nc3)CC2)sc1C(=O)c1c(F)cccc1F [Example H9, 1-(4-Amino-2-{1-[6-(2-imidazol-1-yl-ethoxy)-pyridine-3-sulfonyl]-piperidin-4-ylamino}-thiazol-5-yl)-1-(2,6-difluoro-phenyl)-methanone Hydrochloride]",480,3100,1.2,< 0.5,,,,,
Nc1nc(NC2CCN(C(=O)c3cccc(O)c3)CC2)sc1C(=O)c1c(F)cccc1F [Example R138],,,,,0,40,70,67,
CC(C)S(=O)(=O)c1csc(C(=O)N2CCC(Nc3nc(N)c(C(=O)c4c(F)cccc4F)s3)CC2)c1 [Example R63],,,,,0,38,12,11,
"Nc1nc(NC2CCN(S(=O)(=O)Nc3ccccc3)CC2)sc1C(=O)c1c(F)cccc1F [Example E2, 4-[4-Amino-5-(2,6-difluoro-benzoyl)-thiazol-2-ylamino]-piperidine-1-sulfonic acid phenylamide]",680,1300,3.9,1.2,,,,,
"CNc1ccc(S(=O)(=O)N2CCC(Nc3nc(N)c(C(=O)c4c(F)cccc4F)s3)CC2)cn1 [Example G7, 1-{4-Amino-2-[1-(6-methylamino-pyridine-3-sulfonyl)-piperidin-4-ylamino]-thiazol-5-yl}-1-(2,6-difluoro-phenyl)-methanone]",180,650,1.6,0.75,,,,,
COC(=O)c1ccccc1S(=O)(=O)N1CCC(Nc2nc(N)c(C(=O)c3c(F)cccc3F)s2)CC1 [Example P28],,,,,,,,,"HCT-116 % Inhibition at 0.1 μM ([1]; 0.1 μM compound, HCT-116, Table 3): 7%; HCT-116 % Inhibition at 0.25 μM ([1]; HCT-116, Table 3): 28%; CDK4 % Inhibition at 0.03 μM ([2]; 0.03 μM compound, Table 3): 56%; CDK2 % Inhibition at 0.03 μM ([3]; 0.03 μM compound, Table 3): 55%"
N#Cc1ccc(NC(=O)N2CCC(Nc3nc(N)c(C(=O)c4c(F)cccc4F)s3)CC2)cc1 [Example O56],,,,,,,,,"HCT-116 % Inhibition at 0.25 μM ([1]; HCT-116, Table 2): 37%; CDK4 % Inhibition at 0.03 μM ([2]; 0.03 μM compound, Table 2): 9%; CDK2 % Inhibition At 0.03 μM ([3]; 0.03 μM compound): 29%"
"CN(CCS(=O)(=O)N1CCC(Nc2nc(N)c(C(=O)c3c(F)cccc3F)s2)CC1)C1CCCC1 [Example K30, (4-Amino-2-{1-[2-(cyclopentyl-methyl-amino)-ethanesulfonyl]-piperidin-4-ylamino}-thiazol-5-yl)-(2,6-difluoro-phenyl)-methanone Trifluoroacetic Acid Salt.]",190,620,2.4,9.4,,,,,
Nc1nc(NC2CCN(C(=O)c3cc(Cl)ccc3Cl)CC2)sc1C(=O)c1c(F)cccc1F [Example R108],,,,,5,58,72,56,
Nc1nc(NC2CCN(C(=O)CCC3CCCCC3)CC2)sc1C(=O)c1c(F)cccc1F [Example R101],,,,,7,45,39,15,
C[Si](C)(C)NC(=O)N1CCC(Nc2nc(N)c(C(=O)c3c(F)cccc3F)s2)CC1 [Example O2],,,,,,,,,"HCT-116 % Inhibition at 0.25 μM ([1]; HCT-116, Table 2): 0%; CDK4 % Inhibition at 0.03 μM ([2]; 0.03 μM compound, Table 2): 6%; CDK2 % Inhibition At 0.03 μM ([3]; 0.03 μM compound): 34%"
"Nc1nc(NC2CCN(S(=O)(=O)c3ccc(-c4cccnc4)nc3)CC2)sc1C(=O)c1c(F)cccc1F [Example I6, 1-{4-Amino-2-[1-([2,3′]bipyridinyl-5-sulfonyl)-piperidin-4-ylamino]-thiazol-5-yl}-1-(2,6-difluoro-phenyl)-methanone Hydrochloride]",37,110,0.37,0.32,,,,,
